Data set [1] concerns Elizabethkingia anophelis. The data set can be described thus: Broth microdilution (BMD) MIC. Format: cell-based. From the text: Eighteen E. anophelis clinical isolates from the nationwide surveillance program (Taiwan Surveillance of Antimicrobial Resistance) were well characterized in our previous study ([7]) and were selected for susceptibility testing and minimum bactericidal concentration (MBC) assays. Among them, five isolates with different clonality (underlined strains in Fig. S1) were selected for the time-kill assays and in vivo experiments.
Broth microdilution, disc diffusion, Etest, and agar dilution assays were conducted following CLSI guidelines to determine vancomycin MICs ([8]). […] Criteria for Staphylococcus spp. were not adopted due to the lack of a zone diameter breakpoint. MBCs were determined following CLSI guidelines ([8]).

Data set [2] has as its system Elizabethkingia anophelis. Description: Galleria mellonella (wax moth) infection survival model. Type of data set: in vivo. To be noted: 72 h. On the procedure: (§1) In vivo efficacy was assessed by wax moth (Galleria mellonella), murine pneumonia, and murine thigh infection models following the protocols of our previous study ([2]). The Animal Ethics Committee of Taiwan’s National Health Research Institutes approved the murine pneumonia and thigh infection models.
G. mellonella was reared at the National Health Research Institutes of Taiwan. Caterpillars in the final instar larval stage (weight ca. 250 mg) were used. […] A 10 µL aliquot of E. anophelis at the predetermined lethal dose was injected into the hemocoel of each caterpillar via the last left proleg. Antibiotics were administered once into another proleg at the indicated time points; vancomycin (5, 10, or 20 mg/kg, 2 h post-inoculation); other glycopeptides (teicoplanin, 10 mg/kg, 30 min post-inoculation; dalbavancin, 8.75 mg/kg, 2 h post-inoculation; oritavancin, 15 mg/kg, 1 h post-inoculation) ([11][–][13]); or daptomycin (10 mg/kg, 2 h post-inoculation) ([13]). Each treatment group contained 6–8 caterpillars. A control group injected with sterile PBS was included to monitor for trauma-related mortality. Caterpillars were incubated at 37°C, and survival was recorded twice daily for 72 h.

The subject of data set [3] is Elizabethkingia anophelis. Description: Murine pneumonia model. Type of data set: in vivo, C57BL/6J mice. To be noted: 50 mg/kg intraperitoneal twice daily. The protocol:
as §1
For the pneumonia model, a bacterial suspension was mixed with 5% mucin from porcine stomach (type 3; Sigma-Aldrich, Saint Louis, USA). Seven-week-old C57BL/6J mice were anesthetized with isoflurane for 10 min. For each strain, the inoculum corresponded to the lowest dose that caused >80% mortality in preliminary testing. This inoculum (10⁶–10⁸ cfu, depending on strain) was delivered intratracheally to induce pneumonia. Two hours thereafter, mice received either high or human-equivalent doses of subcutaneous vancomycin (100 mg/kg or 25 mg/kg, respectively) or intraperitoneal teicoplanin (50 mg/kg) ([17]) twice daily for 3 days. Each group contained eight mice, and survival was monitored for 3 days.

The subject of data set [4] is Elizabethkingia anophelis. Description: Murine neutropenic thigh infection model. Format: in vivo, C57BL/6J mice. To be noted: 50 mg/kg intraperitoneal, 2 h and 14 h after inoculation. The protocol: as §1
For the thigh infection model, seven-week-old C57BL/6J mice were rendered neutropenic by intraperitoneal injections of cyclophosphamide (Cytoxan; Bristol-Myers Squibb, Princeton, NJ, USA) 4 days (150 mg/kg) and 1 day (100 mg/kg) before bacterial inoculation. A 30 µL aliquot containing the E. anophelis (10^7 cfu) was injected into each of the two rear thighs. Vancomycin (25 mg/kg or 100 mg/kg, subcutaneous) or teicoplanin (50 mg/kg, intraperitoneal) was administered 2 h and 14 h after inoculation. Mice were sacrificed 24 h post-inoculation, and homogenized thigh tissue was plated in serial 10-fold dilutions on brain-heart infusion agar to determine bacterial counts. Each mouse, not each thigh, was considered an individual data point.

The nature of data set [5]: Serum drug levels in mice (LC-MS/MS). Format: in vivo. To be noted: single dose 50 mg/kg intraperitoneal teicoplanin vs 25 or 100 mg/kg subcutaneous vancomycin. On the procedure:
Fifty microliters of aliquots of murine serum was mixed with 100 µL acetonitrile. The mixture was vortexed and then centrifuged at 15,000 × g for 20 min in a Beckman Coulter Microfuge 22R Centrifuge at room temperature. The supernatant was transferred to a clean tube, and then 15 µL of the supernatant was injected onto LC-MS/MS. The chromatographic system consisted of an Agilent 1200 series LC system and an Agilent ZORBAX Eclipse XDB-C8 column (5 µm, 3.0 × 150 mm) interfaced to an MDS Sciex API3000 tandem mass spectrometer. The MS/MS ion transitions monitored were m/z 725/144 for vancomycin. A gradient HPLC method was employed for separation. Mobile phase A consisted of 10 mM ammonium acetate aqueous solution containing 0.1% formic acid and mobile phase B consisted of acetonitrile. The gradient profile was as follows (min/%B): 0.0–0.9/5, 1.0–2.0/50, 2.1–3.7/95, 3.8–5.0/5. The flow rate was set at 1.5 mL/min.

Where [6] appears, read: Elizabethkingia anophelis, E. anophelis clinical isolate 2008N05-106, read-out: MIC, BMD.
Setting [7] is: Elizabethkingia anophelis, E. anophelis clinical isolate 2008S01-229, read-out: MIC, BMD.
Setting [8] is: Elizabethkingia anophelis, E. anophelis clinical isolate 2014C06-157, read-out: MIC, BMD.
The mark [9] stands for this setting: Elizabethkingia anophelis, E. anophelis clinical isolate 2016N17-576, read-out: MIC, BMD.
Where [10] appears, read: Elizabethkingia anophelis, E. anophelis clinical isolate 2018C04-213, read-out: MIC, BMD.
[11] abbreviates: Elizabethkingia anophelis, E. anophelis clinical isolate 2018C04-224, read-out: MIC, BMD.
[12] abbreviates: Elizabethkingia anophelis, E. anophelis clinical isolate 2018C07-210, read-out: MIC, BMD.
Where [13] appears, read: Elizabethkingia anophelis, E. anophelis clinical isolate 2018C07-234, read-out: MIC, BMD.
Setting [14] is: Elizabethkingia anophelis, E. anophelis clinical isolate 2018C08-127, read-out: MIC, BMD.
Where [15] appears, read: Elizabethkingia anophelis, E. anophelis clinical isolate 2018E03-151, read-out: MIC, BMD.
[16] abbreviates: Elizabethkingia anophelis, E. anophelis clinical isolate 2018E04-135, read-out: MIC, BMD.
[17] abbreviates: Elizabethkingia anophelis, E. anophelis clinical isolate 2018N16-057, read-out: MIC, BMD.
[18] abbreviates: Elizabethkingia anophelis, E. anophelis clinical isolate 2018N17-036, read-out: MIC, BMD.
Setting [19] is: Elizabethkingia anophelis, E. anophelis clinical isolate 2018N17-073, read-out: MIC, BMD.
Setting [20] is: Elizabethkingia anophelis, E. anophelis clinical isolate 2018N17-153, read-out: MIC, BMD.
[21] abbreviates: Elizabethkingia anophelis, E. anophelis clinical isolate 2018N21-226, read-out: MIC, BMD.
The mark [22] stands for this setting: Elizabethkingia anophelis, E. anophelis clinical isolate 2018S09-023, read-out: MIC, BMD.
The mark [23] stands for this setting: Elizabethkingia anophelis, E. anophelis clinical isolate 2018S11-172, read-out: MIC, BMD.
Setting [24] is: E. anophelis used in the G. mellonella assays of Fig. S4, isolate and method not given.

In brackets after ≈: the same amount, converted by molar mass. Like-named read-outs stand apart in the source and are kept apart here.

The results in this text go back to article PMC12584665, “In vitro and in vivo efficacy of vancomycin against Elizabethkingia species and the impact of increased vancomycin MICs” (Microbiology Spectrum, 2025).

`C[C@H]1COc2c(N3CCN(C)CC3)c(F)cc3c(=O)c(C(=O)O)cn1c23` [Levofloxacin]: the MIC in data set [1] (setting [6]) is above 8 µg/mL; in data set [1] (setting [7]), at most 1 µg/mL; in data set [1] (setting [8]), above 8 µg/mL; in data set [1] (setting [9]), above 8 µg/mL; in data set [1] (setting [10]), above 8 µg/mL; in data set [1] (setting [11]), above 8 µg/mL. Besides, the MIC was above 8 µg/mL in data set [1] (setting [12]); above 8 µg/mL in data set [1] (setting [13]); 2 µg/mL (≈ 5.53 µM) in data set [1] (setting [14]); 2 µg/mL (≈ 5.53 µM) in data set [1] (setting [15]); at most 1 µg/mL in data set [1] (setting [16]); at most 1 µg/mL in data set [1] (setting [17]). Moreover, the MIC in data set [1] (setting [18]) is above 8 µg/mL; in data set [1] (setting [19]), above 8 µg/mL; in data set [1] (setting [20]) it was above 8 µg/mL; in data set [1] (setting [21]), at most 1 µg/mL; in data set [1] (setting [22]) it was at most 1 µg/mL; in data set [1] (setting [23]), 2 µg/mL (≈ 5.53 µM).

For the molecule `CCCCCCCCCC(=O)N[C@@H](Cc1c[nH]c2ccccc12)C(=O)N[C@H](CC(N)=O)C(=O)N[C@@H](CC(=O)O)C(=O)N[C@@H]1C(=O)NCC(=O)N[C@@H](CCCN)C(=O)N[C@@H](CC(=O)O)C(=O)N[C@H](C)C(=O)N[C@@H](CC(=O)O)C(=O)NCC(=O)N[C@H](CO)C(=O)N[C@@H]([C@H](C)CC(=O)O)C(=O)N[C@@H](CC(=O)c2ccccc2N)C(=O)O[C@@H]1C` [daptomycin], in data set [2] (10 mg/kg once, 2 h post-inoculation), the “survival of infected wax moths” value is on record as “no survival benefit”. The MIC in data set [1] (E. anophelis used in the G. mellonella assays of Fig. S4, isolate and method not given, read-out: MICs) amounted to 128 µg/mL (≈ 79 µM).

Turning to `CN[C@H](CC(C)C)C(=O)N[C@H]1C(=O)N[C@@H](CC(N)=O)C(=O)N[C@H]2C(=O)N[C@H]3C(=O)N[C@H](C(=O)N[C@H](C(=O)O)c4cc(O)cc(O)c4-c4cc3ccc4O)[C@H](O[C@H]3C[C@](C)(N)[C@@H](O)[C@H](C)O3)c3ccc(c(Cl)c3)Oc3cc2cc(c3O[C@@H]2O[C@H](CO)[C@@H](O)[C@H](O)[C@H]2O[C@H]2C[C@](C)(NCc3ccc(-c4ccc(Cl)cc4)cc3)[C@@H](O)[C@H](C)O2)Oc2ccc(cc2Cl)[C@H]1O` [oritavancin], the “survival of infected wax moths” value in data set [2] (15 mg/kg once, 1 h post-inoculation) was “no survival benefit”. Also, the MIC in data set [1] (read-out: MICs, E. anophelis used in the G. mellonella assays of Fig. S4, isolate and method not given) worked out at 64 µg/mL (≈ 35.7 µM).

For the molecule Teicoplanin, the “survival of infected mice” value in data set [3] is “little effect”. Further, the “survival of infected wax moths” value in data set [2] (10 mg/kg once, 30 min post-inoculation) is “no survival benefit”. Further, the “MIC, BMD” value in data set [1] (E. anophelis clinical isolate 2008N05-106), in data set [1] (E. anophelis clinical isolate 2008S01-229), in data set [1] (E. anophelis clinical isolate 2014C06-157), in data set [1] (E. anophelis clinical isolate 2016N17-576), in data set [1] (E. anophelis clinical isolate 2018C04-213) and in data set [1] (E. anophelis clinical isolate 2018C04-224) was 128 µg/mL in each case. Further, the “MIC, BMD” value in data set [1] (E. anophelis clinical isolate 2018C07-210) is 256 µg/mL; in data set [1] (E. anophelis clinical isolate 2018C07-234), 256 µg/mL; in data set [1] (E. anophelis clinical isolate 2018C08-127), 128 µg/mL; in data set [1] (E. anophelis clinical isolate 2018E03-151), 128 µg/mL; in data set [1] (E. anophelis clinical isolate 2018E04-135) it was 64 µg/mL; in data set [1] (E. anophelis clinical isolate 2018N16-057) it was 128 µg/mL. Further, the “MIC, BMD” value in data set [1] (E. anophelis clinical isolate 2018N17-036) came to 128 µg/mL; in data set [1] (E. anophelis clinical isolate 2018N17-073), 128 µg/mL; in data set [1] (E. anophelis clinical isolate 2018N17-153), 128 µg/mL; in data set [1] (E. anophelis clinical isolate 2018N21-226), 64 µg/mL; in data set [1] (E. anophelis clinical isolate 2018S09-023), 64 µg/mL; in data set [1] (E. anophelis clinical isolate 2018S11-172), 64 µg/mL. In data set [1] (setting [24]), the MICs stood at 128 mg/L. Besides, in data set [4], the “reduction of bacterial loads in thigh” value is reported as “little effect”. For the same molecule, the “concentration in murine serum relative to vancomycin” value in data set [5] is “much higher than that of vancomycin”.

Consider `CN(C)c1ccc(O)c2c1C[C@H]1C[C@H]3[C@H](N(C)C)C(O)=C(C(N)=O)C(=O)[C@@]3(O)C(O)=C1C2=O` [Minocycline], for which the MIC in data set [1] (setting [6]), in data set [1] (setting [7]), in data set [1] (setting [8]), in data set [1] (setting [9]), in data set [1] (setting [10]) and in data set [1] (setting [11]) was at most 2 µg/mL throughout. The MIC in data set [1] (setting [12]), in data set [1] (setting [13]), in data set [1] (setting [14]), in data set [1] (setting [15]), in data set [1] (setting [16]) and in data set [1] (setting [17]) was at most 2 µg/mL in each case. In addition, the MIC in data set [1] (setting [18]), in data set [1] (setting [19]), in data set [1] (setting [20]), in data set [1] (setting [21]), in data set [1] (setting [22]) and in data set [1] (setting [23]) was at most 2 µg/mL throughout.

In the case of `CN[C@H]1C(=O)N[C@@H]2Cc3ccc(cc3)Oc3cc4cc(c3O[C@@H]3O[C@H](C(=O)O)[C@@H](O)[C@H](O)[C@H]3NC(=O)CCCCCCCCC(C)C)Oc3ccc(cc3Cl)[C@@H](O)[C@@H]3NC(=O)[C@H](NC(=O)[C@@H]4NC(=O)[C@@H](NC2=O)c2cc(cc(O)c2Cl)Oc2cc1ccc2O)c1ccc(O)c(c1)-c1c(O[C@H]2O[C@H](CO)[C@@H](O)[C@H](O)[C@@H]2O)cc(O)cc1[C@@H](C(=O)NCCCN(C)C)NC3=O` [dalbavancin], the “survival of infected wax moths” value in data set [2] (8.75 mg/kg once, 2 h post-inoculation) is “no survival benefit”. This molecule also showed an MICs in data set [1] (setting [24]) of 64 mg/L.
